Laboratory results taken from PMC8951750, “In Vitro Anticancer and Cancer-Preventive Activity of New Triterpene Glycosides from the Far Eastern Starfish Solaster pacificus” (Marine Drugs, 2022).
“And” between values parts separate entries of the source, which are not always exact repeats. Equal values may be shown once. Read-outs that look alike come from different tables or passages of the source.

Key:
[1] = test system: non-cancerous mouse epidermal cells JB6 Cl41; test: Cell viability, MTS assay, JB6 Cl41; assay type: cell-based
Experimental: (§1) MTS assay was used to measure the cell viability of tested normal and cancer cells. Cells were seeded into 96-well plates (“Jet Biofil”, Guangzhou, China) at density of 1.0 × 10^4/200 µL for 24 h at 37 °C in a 5% CO2 incubator. Then, cell monolayer was treated either with DMSO (control) or various concentrations of the triterpene glycosides 1–9 from S. pacificus (0.1, 0.5, 2.5, 12.5, 62.5 µM) in fresh appropriate culture medium for 24 h. Subsequently, the cells were incubated with 15 µL of 3-(4,5-dimethylthiazol-2-yl)-5-(3-carboxymethoxyphenyl)-2-(4-sulfophenyl)-2H-tetrazolium (MTS reagent) (“Promega”, Madison, WI, USA) for 3 h, and the absorbance of each well was measured at 490/630 nm using Power Wave XS microplate reader (“BioTek”, Wynusky, VT, USA). The concentration at which the compounds exert half of their maximal inhibitory effect on cell viability (IC50) was calculated by the AAT-Bioquest® online calculator [39]. The selectivity index (SI) was calculated as described previously using the following formula SI = IC50 of the compounds in normal cell (JB6 Cl41)/IC50 of the same compounds in human melanoma cell lines (SK-MEL-2, SK-MEL-28, or RPMI-7951).

JB6 Cl41 cells [2] = test: Soft agar assay, EGF-induced neoplastic cell transformation; assay type: cell-based, mouse; conditions: for inhibition at 0.1 µM: Mus musculus, JB6 Cl41, 336 h; for inhibition of EGF-induced neoplastic transformation of JB6 Cl41 cells: 0.1 µM
Experimental: (§2) JB6 Cl41 cells (2.4 × 10^4) were exposed to epidermal growth factor (EGF) (1 ng/mL) or phorbol 12-myristate 13-acetate (TPA) (10 ng/mL) and treated either with DMSO (control) or the triterpene glycosides 1–9 from S. pacificus (0.1, 0.5, and 1 µM) in 1 mL of 0.3% basal medium Eagle (BME) agar containing 10% FBS, 2 mM L-glutamine, and 25 µg/mL gentamicin (agar mix). The cultures were maintained in a humidified atmosphere with 5% CO2 at 37 °C for 14 days, and the cell’s colonies were scored using a microscope, Motic AE 20 (XiangAn, Xiamen, China), and the ImageJ software bundled with 64-bit Java 1.8.0_112 (NIH, Bethesda, MD, USA). To determine the effect of investigated compounds on neoplastic cell transformation induced by ionizing radiation (X-ray or UVB), JB6 Cl41 cells (3 × 10^5/dish) were seeded in 60 mm dishes and cultured for 24 h at 37 °C in 5% CO2 incubator. Then, the cells were exposed to X-rays (X-ray system XPERT 80 (KUB Technologies, Inc, Milford, CT, USA)) at dose of 0.5 Gy or UVB (wavelengths below 312 nm) (Bio-Link UV irradiation system, Vilber, France) at dose of 0.3 J/cm^2 three times a week for 3 weeks. Irradiated JB6 Cl41 cells (2.4 × 10^4) were treated either with DMSO (control) or the triterpene glycosides 1–9 from S. pacificus (0.1, 0.5, and 1 µM) in 1 mL of agar mix. The cultures were maintained in a humidified atmosphere with 5% CO2 at 37 °C for 14 days, and the cell’s colonies were scored using a microscope, Motic AE 20 (XiangAn, Xiamen 361101, China), and the ImageJ software bundled with 64-bit Java 1.8.0_112 (NIH, Bethesda, MD, USA).

JB6 Cl41 cells [3] = test: Soft agar assay, UVB-induced neoplastic cell transformation; assay type: cell-based, mouse; conditions: for inhibition of UVB-induced neoplastic cell transformation (decrease of colonies number): compound 0.1 µM, UVB 0.3 J/cm^2 three times a week for 3 weeks, soft agar; for inhibition at 0.1 µM: Mus musculus, JB6 Cl41, light or radiation study, 504 h, read-out: inhibition of UVB-induced neoplastic cell transformation (decrease of colonies number), compound 0.1 µM, UVB 0.3 J/cm^2 three times a week for 3 weeks, soft agar
Experimental: as §2

[4] = test system: human melanoma cells SK-MEL-28; test: Cell viability, MTS assay, SK-MEL-28; assay type: cell-based; conditions: for SI (selectivity index) SK-MEL-28: IC50 JB6 Cl41 / IC50 SK-MEL-28
Experimental: as §1

[5] = test system: human melanoma cells RPMI-7951; test: Cell viability, MTS assay, RPMI-7951; assay type: cell-based; conditions: for SI (selectivity index) RPMI-7951: IC50 JB6 Cl41 / IC50 RPMI-7951
Experimental: as §1

JB6 Cl41 cells [6] = test: Soft agar assay, TPA-induced neoplastic cell transformation; assay type: cell-based, mouse; conditions: for inhibition at 0.1 µM: Mus musculus, JB6 Cl41, 336 h; for inhibition of TPA-induced neoplastic transformation of JB6 Cl41 cells: 0.1 µM
Experimental: as §2

SK-MEL-2 cells = test: Soft agar assay, colony formation of cancer cells; assay type: cell-based, human; conditions: compound 0.1 µM, 14 days
Experimental: SK-MEL-2 cells (2.4 × 10^4) were treated either with DMSO (control) or the triterpene glycosides 1–9 from S. pacificus (0.1 µM) in 1 mL of agar mix. After 14 days, colonies of cancer cells were scored as described above.

[7] = test system: Human erythrocytes (O(I)+); test: Hemolysis assay; assay type: cell-based; conditions: 1 h, 37 °C, PBS pH 7.4
Experimental: Human erythrocytes (O(I)+) were obtained from Vladivostok blood transfusion station. Erythrocytes were centrifuged with PBS (pH 7.4) for 5 min at 4 °C by 450× g on a LABOFUGE 400R (Heraeus, Hanau, Germany) centrifuge three times. Then, the residue of erythrocytes was resuspended in ice-cold PBS (pH 7.4) to a final optical density of 2.0 at 700 nm and kept on ice. For the hemolytic assay, 180 µL of erythrocyte suspension was mixed with 20 µL of Cucumarioside A2-2 (positive control) and investigated compounds at concentrations range of 0.1, 0.5, 1, 5, 10 µM in V-bottom 96-well plates. After 1 h of incubation at 37 °C, plates were centrifuged at 900× g for 10 min on an LMC-3000 (Biosan, Riga, Latvia) laboratory centrifuge. Then, we carefully selected 100 µL of supernatant and transferred it to new flat plates, respectively. Lysis of erythrocytes was determined by measuring the concentration of hemoglobin in the supernatant with a microplate photometer Multiskan FC (Thermo Fisher Scientific, Waltham, MA, USA) at 570 nm. The effective dose causing 50% of erythrocytes hemolysis (ED50) was calculated using the computer program SigmaPlot 10.0. All experiments were made in triplicate, p < 0.01.

JB6 Cl41 cells [8] = test: Soft agar assay, X-ray-induced neoplastic cell transformation; assay type: cell-based, mouse; conditions: Mus musculus, JB6 Cl41, 504 h
Experimental: as §2

[9] = test system: human melanoma cells SK-MEL-2; test: Cell viability, MTS assay, SK-MEL-2; assay type: cell-based
Experimental: as §1

[10] = Mus musculus, JB6 Cl41, 24 h, read-out: IC50, cell viability JB6 Cl41, MTS assay, 24 h, normal cells
[11] = compound 0.1 µM, EGF 1 ng/mL, soft agar, 2 weeks, vs positive control
[12] = Homo sapiens, SK-MEL-28, 24 h, read-out: IC50, cell viability SK-MEL-28, MTS assay, 24 h
[13] = Homo sapiens, RPMI-7951, 24 h, read-out: IC50, cell viability RPMI-7951, MTS assay, 24 h
[14] = compound 0.1 µM, TPA 10 ng/mL, soft agar, 2 weeks, vs positive control
[15] = read-out: inhibition of X-ray-induced cell transformation (JB6 Cl41 colonies formation), compound 0.1 µM, X-rays 0.5 Gy three times a week for 3 weeks, soft agar
[16] = Homo sapiens, SK-MEL-2, 24 h, read-out: IC50, cell viability SK-MEL-2, MTS assay, 24 h
[17] = read-out: IC50, cell viability SK-MEL-2, MTS assay, 24 h

Structure (SMILES)	inhibition of UVB-induced neoplastic cell transformation (decrease of colonies number) (JB6 Cl41 cells [3])	SI (selectivity index) SK-MEL-28 [4]	decrease of colonies number of SK-MEL-2 cells (colony formation) (SK-MEL-2 cells) [%]	ED50, effective dose causing 50% of erythrocytes hemolysis [7]	IC50 [1, 10] [µM]	inhibition of EGF-induced neoplastic transformation of JB6 Cl41 cells (JB6 Cl41 cells [2]; [11]) [%]	inhibition at 0.1 µM (JB6 Cl41 cells [3]) [%]	IC50 [4, 12] [µM]	IC50 [5, 13] [µM]	SI (selectivity index) RPMI-7951 [5]	inhibition of TPA-induced neoplastic transformation of JB6 Cl41 cells (JB6 Cl41 cells [6]; [14]) [%]	inhibition at 0.1 µM (JB6 Cl41 cells [8]; [15]) [%]	IC50 [9, 16] [nM]	IC50 [9, 17] [nM]	further results
C=C(C)C1C2CC3(C)C4=CCC5C(C)(C)C(OC6OCC(O)C(O)C6OC6OC(C)C(OC7OC(CO)C(O)C(O)C7O)C(O)C6OC6OCC(O)C(O)C6O)CCC5(C)C4CCC13C(=O)O2 [Compound 8, 3β-O-{β-D-glucopyranosyl-(1→4)-[β-D-xylopyranosyl-(1→2)]-β-D-quinovopyranosyl-(1→2)-β-D-xylopyranosyl}-23,24,25,26,27-pentanor-5α-lanosta-7,20(22)-diene-18(16)-lactone]	not effective	0.8	3	6.16 ± 0.05 µM	–	–	–	–	–	–	–	–	–	–	IC50 ([1]; Mus musculus, JB6 Cl41, 24 h, MTS assay, 24 h, normal cells, read-out: IC50, cell viability JB6 Cl41): 32.8 ± 2.8 µM; inhibition at 0.1 µM (JB6 Cl41 cells [2]; compound 0.1 µM, EGF 1 ng/mL, soft agar, 2 weeks, vs positive control, read-out: inhibition of EGF-induced neoplastic transformation of JB6 Cl41 cells): 10%; IC50 ([4]; Homo sapiens, SK-MEL-28, 24 h, MTS assay, 24 h, read-out: IC50, cell viability SK-MEL-28): 42 ± 0.4 µM; IC50 ([5]; Homo sapiens, RPMI-7951, 24 h, MTS assay, 24 h, read-out: IC50, cell viability RPMI-7951): > 50 µM; inhibition at 0.1 µM (JB6 Cl41 cells [6]; compound 0.1 µM, TPA 10 ng/mL, soft agar, 2 weeks, vs positive control, read-out: inhibition of TPA-induced neoplastic transformation of JB6 Cl41 cells): 20%; inhibition at 0.1 µM (JB6 Cl41 cells [8]; compound 0.1 µM, X-rays 0.5 Gy three times a week for 3 weeks, soft agar, read-out: inhibition of X-ray-induced cell transformation (JB6 Cl41 colonies formation)): < 15%; IC50 ([9]; Homo sapiens, SK-MEL-2, 24 h, MTS assay, 24 h, read-out: IC50, cell viability SK-MEL-2): > 50000 nM
COC1C(O)COC(OC2C(O)C(COS(=O)(=O)O)OC(OC3C(C)OC(OC4C(OC5CCC6(C)C7CCC89C(=O)OC(C)(C=CC=C(C)C)C8C(OC(C)=O)CC9(C)C7=CCC6C5(C)C)OCC(O)C4O)C(O)C3O)C2O)C1O [Compound 3, 3β-O-{3-O-methyl-β-D-xylopyranosyl-(1→3)-6-sulfoxy-β-D-glucopyranosyl-(1→4)-β-D-quinovopyranosyl-(1→2)-β-D-xylopyranosyl}-16β-acetoxyholosta-7,22E,24-triene]	–	0.4	34	0.72 µM and 0.72 ± 0.05 µM	6 ± 0.1	70	13	14.8 ± 0.03	27.9 ± 0.09	0.22	36	26	< 1000	680 ± 60	SI (selectivity index) SK-MEL-2 ([9]; IC50 JB6 Cl41 / IC50 SK-MEL-2): 8.8
COC1C(O)C(CO)OC(OC2C(O)C(CO)OC(OC3C(C)OC(OC4C(OC5CCC6(C)C7CCC89C(=O)OC(C)(C=CC=C(C)C)C8C(OC(C)=O)CC9(C)C7=CCC6C5(C)C)OCC(O)C4O)C(OC4OCC(O)C(O)C4O)C3O)C2O)C1O (stereo not drawn) [Compound 4, cucumarioside D]	–	–	70	2.48 µM and 2.48 ± 0.05 µM	–	92	86	–	–	0.2	99	97	–	670 ± 40	IC50 ([1]; read-out: IC50, cell viability JB6 Cl41, MTS assay, 24 h, normal cells): 6.1 ± 0.4 µM; IC50 ([4]; read-out: IC50, cell viability SK-MEL-28, MTS assay, 24 h): 8.3 ± 0.1 µM; IC50 ([5]; read-out: IC50, cell viability RPMI-7951, MTS assay, 24 h): 29.2 ± 0.04 µM
C=C(C)C1C2CC3(C)C4=CCC5C(C)(C)C(OC6OCC(O)C(O)C6OC6OC(C)C(OC7OC(CO)C(O)C(OC8OC(CO)C(O)C(OC)C8O)C7O)C(O)C6OC6OCC(O)C(O)C6O)CCC5(C)C4CCC13C(=O)O2 [Compound 7, 3β-O-{3-O-methyl-β-D-glucopyranosyl-(1→3)-β-D-glucopyranosyl-(1→4)-[β-D-xylopyranosyl-(1→2)]-β-D-quinovopyranosyl-(1→2)-β-D-xylopyranosyl}-23,24,25,26,27-pentanor-5α-lanosta-7,20(22)-diene-18(16)-lactone]	not effective	0.3	15	4.07 ± 0.10 µM	8.7 ± 0.07	–	–	23 ± 0.07	31.4 ± 0.1	0.25	–	< 15	5600 ± 100	–	inhibition at 0.1 µM (JB6 Cl41 cells [2]; read-out: inhibition of EGF-induced neoplastic transformation of JB6 Cl41 cells, compound 0.1 µM, EGF 1 ng/mL, soft agar, 2 weeks, vs positive control): 20%; inhibition at 0.1 µM (JB6 Cl41 cells [6]; read-out: inhibition of TPA-induced neoplastic transformation of JB6 Cl41 cells, compound 0.1 µM, TPA 10 ng/mL, soft agar, 2 weeks, vs positive control): 33%
